# Laboratory results reported in patent US12390490B2, “Sphingolipid-based selenium compounds, methods for their preparation, and pharmaceutical uses thereof, including as antitumor agents” (MUSC FOUNDATION FOR RESEARCH DEVELOPMENT, priority 2019, dated 2025).
# “Also recorded” adds a separate entry of the source.
# Legend:
# HNSCC-1A cells [1] = assay: Cell death / MTT cell viability assay; assay type: cell-based, human
# HNSCC-1A cells [2] = assay: ATP levels (lethal mitophagy); assay type: cell-based, human; details: 4 μM, 48 hours
# Protocol: FIG. 7 is a graph showing adenosine triphosphate (ATP) activity in head and neck squamous cell carcinoma (HNSCC-1A) cells incubated with 4 micromolar (μM) concentrations of a pyridinium-substituted ceramide-based compound (LCL-461), the selenite conjugated salt of a pyridinium-substituted ceramide-based compound (LCL-768), or vehicle for 48 hours. ATP levels in the samples were measured, and all samples were normalized to a standard curve and then to vehicle activity.
# HNSCC-1A cells [3] = assay: ACO2 levels by Western blotting (lethal mitophagy); assay type: cell-based, human; details: 4 μM, 48 hours
# Protocol: FIG. 6 is a graph showing levels of aconitase 2 (ACO2) (reported as normalized cumulative pixel intensity) in head and neck squamous cell carcinoma (HNSCC-1A) cells incubated with 4 micromolar (μM) concentrations of a pyridinium-substituted ceramide-based compound (LCL-461), the selenite conjugated salt of a pyridinium-substituted ceramide-based compound (LCL-768), or vehicle for 48 hours. ACO2 levels were measured via Western blotting. Image-processing software was used to quantify the band intensity from the blots.
# HNSCC-1A cells [4] = assay: LC3B-II levels by Western blotting (autophagy); assay type: cell-based, human; details: 4 μM, 1.5 hours
# Protocol: LC3B-II levels were measured via Western blotting. Image-processing software was used to quantify the band intensity from the blots.
# (§1) Cellular lysates in radioimmunoprecipitation assay (RIPA) buffer containing a protease inhibitor cocktail (Sigma-Aldrich, St. Louis, Missouri, United States of America) were normalized by the total protein level and analyzed by sodium dodecyl sulfate-polyacrylamide gel electrophoresis (SDS-PAGE) and immunoblotting with corresponding antibodies. For immunoprecipitation, precleared cytosolic fractions were incubated overnight with 2 μg of corresponding antibodies at 4° C., followed by 1-hour incubation with Protein A/G Agarose (Santa Cruz Biotechnology, Inc., Dallas, Texas, United States of America) (50 μl of a 50% slurry). Resin was washed three to five times, and pulled-down proteins were analyzed by SDS-PAGE and Western blotting with corresponding antibodies.
# HNSCC-1A cells [5] = assay: Confocal immunofluorescence, colocalization of ceramide and Tom20; assay type: cell-based, human; details: 1 μM or 4 μM, 1.5 hours, compared to vehicle and LCL-461
# [6] = tested on: orthotopic GB U118-xenograft-derived tumor; assay: Orthotopic GB U118 xenograft in brains of SCID mice; assay type: in vivo; details: 1 mg/kg/day for 14 days, female SCID mice
# UM-SCC-1A cells [7] = assay: CYTO-ID mitophagy detection in UM-SCC-1A cells with shSCR or shLC3; assay type: cell-based, human
# HNSCC-1A cells [8] = details: 1 and 2.5 μM, live HNSCC-1A cells
# UM-SCC-1A cells [9] = assay: Subcellular accumulation by differential centrifugation and mass spectrometry; assay type: cell-based, human; details: 10 μM, 6-24 hours
# Protocol: FIG. 13D is a graph showing the subcellular accumulation of LCL-768 (10 micromolar (μM)) after 0, 3, 6, 9, or 24 hours in the nucleus, mitochondria and cytoplasm of human head and neck squamous cell carcinoma (HNSCC) cells (UM-SCC-1A cells) as measured by mass spectrometry/lipidomics after differential centrifugation.
# The effects of LCL-768 on mitophagy induction in UM-SCC-IA cells transfected stably with the shRNA against LC3B (shLC3) was studied and compared to controls (UM-SCC-1A cells transfected with a control shRNA, shSCR). […] The subcellular accumulation of LCL-768 was studied in the same cells. Nucleus, mitochondria and cytoplasm in LCL-768-treated cells were isolated by differential centrifugation and LCL-768 accumulation was measured by mass spectrometry. […] Thus, these studies further support mitochondrial accumulation and efficacy of LCL-768 in inducing mitophagy in UM-SCC-1A cells.
# [10] = tested on: murine glioblastoma (GL261) cells; details: 5 μM, 24 hour treatment
# [11] = Maximum tolerated dose in SCID mice; assay type: in vivo
# human glioblastoma cells = details: 5 μM, 24 hour treatment, compared to LCL-461 or sodium selenite
# [12] = tested on: non-cancerous adjacent tissue organoids; assay: Ex vivo non-cancerous adjacent tissue organoids, mitophagy; assay type: cell-based, human; details: ex vivo treatment, same patient
# Description: (§2) To validate the clinical relevance of the activation of mitophagy, 2D organoids^4 were developed using tumor tissues obtained from a patient with HNSCC. […] The co-localization of GM130/Calnexin was used as a control.
# UM-SCC-1A-xenografts = tested on: UM-SCC-1A-xenografts
# Description: Tumor volume (cubic millimeters (mm^3)) is provided for both […] mice and mice treated with vehicle as a control.
# HNSCC-IA cells = assay: Confocal immunofluorescence, colocalization of CerS1 and mitochondrial protein Tom20; assay type: cell-based, human; details: 1 μM, 3 hours
# Protocol: FIG. 3A is a series of confocal microscopy images of cells treated with 1 micromolar (1 μM) concentrations of a pyridinium-substituted ceramide-based selenium conjugated compound (LCL-768) or vehicle for 3 hours and labeled for Ceramide Synthase 1 (CerS1; top row), mitochondria (middle row) or both (bottom row).
# UM-SCC-22A (squamous carcinoma) cells (50,000 per well) were plated on glass coverslips in a six-well plate for 18 hours. Cells were fixed and permeabilized using 4% paraformaldehyde (20 min) and 0.1% Triton X-100 in 1× phosphate-buffered saline (PBS) (pH 7.4) for 10 min. The cells were then blocked with 1% bovine serum albumin (BSA)/PBS (pH 7.4) for 1 hour. […] Immunofluorescence was performed using a Leica TCS SP2 AOBS confocal microscope (Leica Microsystems, Wetzler, Germany), an Olympus FV10i microscope (Olympus Corporation, Tokyo, Japan) with 543- and 488-nm channels for visualizing green and red fluorescence, or a Zeiss LSM 880 NLO Quasar confocal/multiphoton microscope with a Fast Airyscan super-resolution detector (Carl Zeiss, AG, Oberkochen, Germany). […] At least three random fields were selected for image quantification.
# HNSCC organoids [13] = assay: Ex vivo 2D HNSCC patient organoids, CerS1/Tom20 co-localization (mitophagy); assay type: cell-based, human; details: ex vivo treatment
# Description: FIG. 14A is a series of microscopy images showing the H&E staining (top row) and fluorescence imaging of the co-localization of translocase of outer mitochondrial membrane 20 (Tom20) and CerS1 (as a measure of mitophagy, middle row) in two-dimensional (2D) organoids developed from a patient with head and neck squamous cell carcinoma (HNSCC) in response to treatment with vehicle, LCL-768, sodium selenite (SoSe), rapamycin, or cisplatin ex vivo. Co-localization of cis-Golgi matrix protein 130 kDa (GM130) and Calnexin was used as a negative control (bottom row).
# FIG. 14B is a graph showing the quantification of colocalization of Tom20 and CerS1 from the treated two-dimensional (2D) organoids described for FIG. 14A.
# as §2
# U118 cells = assay: Western blotting of mitophagy markers, U118 cells; assay type: cell-based, human
# Protocol: (§3) FIG. 10 is a composite gel image of Western blot analysis of extracts from non-cancerous human astrocytes (HA), 43RG32 and U118 cells treated with 0 micromolar (0 μM) or 5 μM LCL-768. The effects of LCL-768 on LC3-II activation, aconitase 2 (ACO2) degradation, and dynamin-related GTPase (Drp1) dephosphorylation at […] were measured as markers of mitophagy (n=3).
# (§4) 43RG32 and U118 glioblastoma cells were treated with (+) or without (−) 5 micromolar (5 μM) LCL-768 and with (+) or without (−) the Drp1 inhibitor Mdivi-1. Actin was used as a loading control (n=3).
# as §1
# normal murine astrocytes = assay: MTT cell viability, normal murine astrocytes; assay type: cell-based; details: 5 μM, 24 hour treatment
# [14] = tested on: non-cancerous human astrocytes (HA); details: 5 μM
# Protocol: as §3, §1
# [15] = tested on: normal human astrocyte (HA) cells; assay: MTT cell viability, normal human astrocytes; assay type: cell-based; details: 5 μM, 24 hour treatment
# 43RG32 cells = assay: Western blotting of mitophagy markers, 43RG32 cells; assay type: cell-based, human
# Protocol: as §3, §4, §1
# HNSCC organoids [16] = details: ex vivo treatment, MALDI-Imaging
# Description: as §2
compound,measurement,setting,value
"CCCCCCCCCCCCCCCCCC(=O)N[C@@H](CO)[C@H](O)/C=C/CCCCCCCCC[n+]1ccccc1.[Br-] [LCL-461, D-erythro-2-N-octadecanoyl-14-(1′-pyridinium)-sphingosine bromide, reference compound]",IC50,"HNSCC-1A cells [1]; Homo sapiens, 24 hours",~10 µM
same,IC50,"HNSCC-1A cells [1]; Homo sapiens, 48 hours",~4 µM
same,levels of ATP compared to vehicle (lethal mitophagy),HNSCC-1A cells [2],decreased levels
same,levels of ACO2 compared to vehicle (lethal mitophagy),HNSCC-1A cells [3],decreased levels
same,LC3B-II levels (autophagy),HNSCC-1A cells [4],increased LC3B-II levels
same,colocalization of ceramide and Tom20 (selenite-stress response),HNSCC-1A cells [5],does not cause a strong selenite-stress response
"CCCCCCCCCCCCCCCCCC(=O)N[C@@H](CO)[C@H](O)/C=C/CCCCCCCCC[n+]1ccccc1.CCCCCCCCCCCCCCCCCC(=O)N[C@@H](CO)[C@H](O)/C=C/CCCCCCCCC[n+]1ccccc1.O=[Se]([O-])[O-] [LCL-768, D-erythro-14-(1′-pyridinium)-N-octadecanoyl-sphingosine selenite]",tumor growth in the brain (MRI) compared to controls,[6]; osmotic pump into brain tumor,remarkably reduced tumor growth
same,increase of survival post-treatment,"[6]; osmotic pump, vs vehicle",about 10 days
same,mitophagy induction in shSCR-controls,"UM-SCC-1A cells [7]; 10 μM, 6, 9 and 24 hours, UM-SCC-1A shSCR",highly induced mitophagy
same,mitophagy induction after knockdown of LC3,"UM-SCC-1A cells [7]; 10 μM, UM-SCC-1A shLC3",almost completely prevented
same,IC50,HNSCC-1A cells [1]; 24 hours,~10 µM
same,IC50,HNSCC-1A cells [1]; 48 hours,~4 µM
same,time of exposure at which mitophagy is occurring,HNSCC-1A cells [8],≤ 90 min
same,"subcellular accumulation (nucleus, mitochondria, cytoplasm)",UM-SCC-1A cells [9],largely accumulated in the mitochondria
same,autophagic cell death in mouse glioblastoma cells,[10],induced autophagic cell death in mouse glioblastoma cells at a higher level than either LCL-461 or sodium selenite
same,maximum tolerated dose (MTD),[11],10 mg/kg
same,levels of ATP compared to vehicle (lethal mitophagy),HNSCC-1A cells [2],decreased levels
same,autophagic cell death in human glioblastoma cells,human glioblastoma cells,induced autophagic cell death
same,mitophagy induction in non-cancerous adjacent tissue organoids,[12],did not affect mitophagy induction
same,tumor growth compared to vehicle-treated mice,"UM-SCC-1A-xenografts; 10 mg/kg intraperitoneal every other day, 21 days, SCID mice",inhibited tumor growth significantly
same,"mitophagy in xenograft-derived tumors (ACO2, P-S637 Drp1, S-NO-Drp1)","UM-SCC-1A-xenografts; day 21, Western blotting",induction of mitophagy
same,accumulation in tumor vs adjacent non-tumorigenic tissues,"UM-SCC-1A-xenografts; day 21, mass spectrometry",higher tumor accumulation
same,colocalization of CerS1 and mitochondrial protein Tom20,HNSCC-IA cells,significant increase
same,levels of ACO2 compared to vehicle (lethal mitophagy),HNSCC-1A cells [3],decreased levels
same,mitophagy (co-localization of CerS1 and Tom20) compared to vehicle-treated controls,HNSCC organoids [13],induced mitophagy
same,ACO2 degradation (mitophagy),U118 cells; 5 μM,induced
same,LC-3B-II activation (autophagy marker),U118 cells; 5 μM,induced
same,cell death in mouse normal astrocytes,normal murine astrocytes,not induced
same,ACO2 degradation (mitophagy),[14]; HA cells,not
same,LC-3B-II activation (autophagy marker),[14]; HA cells,not
same,"mitophagy (LC3-II activation, ACO2 degradation, Drp1 dephosphorylation as markers)",[14]; as stated in legend of FIG. 10,induces mitophagy
same,LC3B-II levels (autophagy),HNSCC-1A cells [4],increased LC3B-II levels
same,cell death in human normal astrocytes,[15],not induced
same,ACO2 degradation (mitophagy),43RG32 cells; 5 μM,induced
same,LC-3B-II activation (autophagy marker),43RG32 cells; 5 μM,induced
same,colocalization of ceramide and Tom20 (selenite-stress response),HNSCC-1A cells [5],increased colocalization
same,endogenous C24-ceramide compared to controls,HNSCC organoids [16],decreased
"COc1cc(-n2c(=S)[nH]c3ccccc3c2=O)c(Cl)cc1Cl [Mdivi-1, reference compound]",effect of Drp1 inhibition on LCL-768-mediated ACO2 degradation / mitophagy,U118 cells; with 5 μM LCL-768,almost completely prevented; also recorded: prevents
same,effect of Drp1 inhibition on LCL-768-mediated ACO2 degradation / mitophagy,43RG32 cells; with 5 μM LCL-768,almost completely prevented; also recorded: prevents
"N.N.[Cl][Pt][Cl] [cisplatin, reference compound]",mitophagy induction in non-cancerous adjacent tissue organoids,[12],did not affect mitophagy induction
same,mitophagy (co-localization of CerS1 and Tom20) compared to vehicle-treated controls,HNSCC organoids [13],induced mitophagy
"O=[Se](O)O [sodium selenite, reference compound]",cell death in mouse normal astrocytes,normal murine astrocytes,not induced
same,cell death in human normal astrocytes,[15],not induced
